How the values were obtained:
[1] = test system: adult patients with early type 2 diabetes mellitus and increased CV risk or established complications; assay: Cardiovascular Safety Trial (linagliptin versus glimepiride); type: in vivo
Method: The effect of linagliptin on cardiovascular risk in adult patients with early type 2 diabetes mellitus and increased CV risk or established complications was evaluated in this Cardiovascular Safety Trial, a multi-center, multi-national, randomized, double-blind parallel group trial. The trial compared the risk of experiencing a major adverse cardiovascular event (MACE) between linagliptin and glimepiride when these were added to standard of care (including background therapy with metformin) based on regional standards for HbA1c and CV risk factors. The trial was event driven and patients were followed until at least 631 primary outcome events accrued.
A total of 6033 patients were treated (linagliptin 5 mg=3023; glimepiride 1 mg to 4 mg=3010) and followed for a median of 6.25 years (median time on treatment 5.9 years). Approximately 73% of the study population was Caucasian, 18% was Asian, and 5% was Black. The mean age was 64 years and 60% were male.
At baseline, disease characteristics were balanced. […] The trial population included 2030 (34%) patients ≥70 years of age, 2089 (35%) patients with cardiovascular disease, and 1130 (19%) patients with renal impairment with an eGFR <60 mL/min/1.73 m2 at baseline. Overall, the previous use of diabetes medications was balanced across treatment groups (metformin 83% continued as background therapy, sulfonylurea 28% discontinued prior to randomization), patients on insulin were excluded. The use of medications to reduce cardiovascular risk was also balanced (aspirin 47%, statins 65%, ACE inhibitors or ARBs 74%, beta blockers 39%, and calcium channel blockers 30%).
The primary endpoint in this Cardiovascular Safety Trial was the time to first occurrence of three point (3P) MACE. A major adverse cardiac event was defined as a cardiovascular death or a nonfatal myocardial infarction (MI) or a nonfatal stroke. The statistical analysis plan tested for non-inferiority for the occurrence of 3P MACE. The key secondary endpoint evaluated the composite of treatment sustainability defined as the proportion of patients on study treatment, that maintain glycemic control (HbA1c≤7.0%) without need for additional antidiabetic drug therapy (rescue medication), without any moderate (symptomatic with glucose value <70 mg/dL) or severe (requiring assistance) hypoglycemic episodes, and without >2% weight gain from baseline.
Cardiovascular Outcome Trial of Linagliptin Versus Glimepriride in Type 2 Diabetes—assessing long-term cardiovascular impact of linagliptin versus the sulphonylurea glimepiride in subjects with early type 2 diabetes and increased cardiovascular risk or established complications. […]
Type 2 diabetes patient with insufficient glycemic control (naïve or currently treated (mono or dual therapy) with e.g. metformin and/or an alpha-glucosidase inhibitor (e.g. having HbA1c 6.5-8.5%), or currently treated (mono or dual therapy) with e.g. a sulphonylurea or glinide, with or without metformin or an alpha-glucosidase inhibitor (e.g. having HbA1c 6.5-7.5%)) and increased or high risk of cardiovascular events, e.g. defined as one or more of risk factors A), B), C) and D) indicated below, are randomized* and treated over a lengthy period (e.g. up to 432 weeks) with linagliptin (5 mg, q.d., optionally in combination with one or more other active substances, e.g. such as added to existing antidiabetic background) and compared with patients treated with the sulphonylurea glimepiride (1-4 mg once daily). * Upon randomization, if a patient is on a SU or glinide, this secretagogue therapy is discontinued and replaced with study medication. For patients not on a secretagogue, study medication is added to the existing regimen.
Time to first occurrence of any of the following adjudicated components of the primary composite endpoint: […]

patients with T2D = details: compared to placebo; cited from earlier work
[2] = baseline to Final Visit, all observed cases
[3] = baseline to Final Visit, observed cases including values after rescue medication
[4] = both, human, in vivo, 5.9 years
[5] = both, human, in vivo, 6.25 years
[6] = component of secondary composite
[7] = from end of titration (16 weeks) to final visit
[8] = median follow-up 6.25 years, listed as glimepiride

Structure (SMILES): CCC1=C(C)CN(C(=O)NCCc2ccc(S(=O)(=O)NC(=O)N[C@H]3CC[C@H](C)CC3)cc2)C1=O [Glimepiride]
- patients with macroalbuminuria (>300 mg/g) ([1]; at Final Visit): 1.4%
- patients with microalbuminuria (≥30 to ≤300 mg/g) ([1]; at Final Visit): 16.0%
- patients with normal UACR (<30 mg/g) ([1]; at baseline and at Final Visit): 57.7%
- FPG, Change from baseline, adjusted mean [1, 2]: 19.7 mg/dL
- HBA1c, Change from baseline, adjusted mean [1, 2]: 0.15%
- Creatinine, Change from baseline, adjusted mean [1, 3]: 0.09 mg/dL
- HDL, Change from baseline, adjusted mean [1, 3]: 0.3 mg/dL
- LDL, Change from baseline, adjusted mean [1, 3]: -6.5 mg/dL
- Total cholesterol, Change from baseline, adjusted mean [1, 3]: -5.0 mg/dL
- Triglyceride, Change from baseline, adjusted mean [1, 3]: 5.2 mg/dL
- Urinary albumin, Change from baseline, adjusted mean [1, 3]: 45.2 mg/dL
- third key secondary endpoint of treatment sustainability (on medication, HbA1c≤7.0%, no rescue, no >2% weight gain), responders ([1]; between Visit 6 and Final Visit): 14.1%
- Hospitalization for heart failure (HHF), Incidence Rate per 1000 PY ([1]; both, human, in vivo): 5.3 per 1000 PY
- Hospitalization for heart failure (HHF), Number of Subjects ([1]; both, human, in vivo): 92
- Patients with any moderate/severe hypoglycemic episodes, Number of Subjects ([1]; both, human, in vivo): 791
- Patients with any moderate/severe hypoglycemic episodes, Subjects (%) ([1]; both, human, in vivo): 27.5%
- Secondary CV composite (4P-MACE), Incidence Rate per 1000 PY ([1]; both, human, in vivo): 23.7 per 1000 PY
- rate of moderate or severe hypoglycemia [1, 4]: 30.9%
- severe hypoglycemia (requiring assistance) [1, 4]: 2.2%
- Hospitalization for heart failure (HHF), Subjects (%) [1, 5]: 3.1%
- Premature discontinuation from trial medication due to adverse events [1, 5]: 17.4%
- Primary CV composite (3P-MACE), Incidence Rate per 1000 PY [1, 5]: 21.2 per 1000 PY
- all-cause mortality, incidence rate per 1000 years at risk [1, 5]: 18.4 per 1000 years at risk
- any adjudicated event (secondary CV endpoint), % of patients [1, 5]: 17.8%
- hospitalisation for heart failure combined with CV death, incidence rate per 1000 years at risk [1, 5]: 13.4 per 1000 years at risk
- hospitalisation for heart failure, incidence rate per 1000 years at risk [1, 5]: 5.3 per 1000 years at risk
- investigator-reported heart failure AEs, % of patients [1, 5]: 5.2%
- investigator-reported heart failure AEs, incidence rate per 1000 years at risk [1, 5]: 9.0 per 1000 years at risk
- non-CV death, % of patients [1, 5]: 5.6%
- non-CV death, incidence rate per 1000 years at risk [1, 5]: 9.2 per 1000 years at risk
- proportion of patients with CV death contributing to the 3P-MACE [1, 5]: 4.2%
- proportion of patients with CV death contributing to the 4P-MACE [1, 5]: 4.1%
- proportion of patients with hospitalisation for unstable angina pectoris contributing to the 4P-MACE [1, 5]: 1.8%
- proportion of patients with non-fatal MI contributing to the 3P-MACE [1, 5]: 4.6%
- proportion of patients with non-fatal MI contributing to the 4P-MACE [1, 5]: 4.3%
- proportion of patients with non-fatal stroke contributing to the 3P-MACE [1, 5]: 3.4%
- proportion of patients with non-fatal stroke contributing to the 4P-MACE [1, 5]: 3.3%
- Patients with maintained glycemic control (HbA1c ≤7.0%), Number of Subjects [1, 6]: 554
- Patients with maintained glycemic control (HbA1c ≤7.0%), Subjects (%) [1, 6]: 18.5%
- Patients with ≤2% weight gain, Number of Subjects [1, 6]: 699
- Patients with ≤2% weight gain, Subjects (%) [1, 6]: 23.3%
- Secondary composite of treatment sustainability (on treatment, HbA1c ≤7.0%, no rescue, no moderate/severe hypoglycemic episodes, no >2% weight gain), Number of Subjects [1, 7]: 305
- Secondary composite of treatment sustainability (second key secondary endpoint), Subjects (%) [1, 7]: 10.2%
- first intake of rescue medication, incidence rate per 1000 years at risk ([1]; in vivo): 115.5 per 1000 years at risk
- rate of patients who used rescue medication ([1]; in vivo): 47.1%
- All-cause mortality, Incidence Rate per 1000 PY ([1]; median follow-up 6.25 years): 18.4 per 1000 PY
- All-cause mortality, Number of Subjects ([1]; median follow-up 6.25 years): 336
- All-cause mortality, Subjects (%) ([1]; median follow-up 6.25 years): (11.2) %
- HHF or CV death, Incidence Rate per 1000 PY ([1]; median follow-up 6.25 years): 13.4 per 1000 PY
- HHF or CV death, Number of Subjects ([1]; median follow-up 6.25 years): 234
- HHF or CV death, Subjects (%) ([1]; median follow-up 6.25 years): (7.8) %
- Secondary CV composite (cardiovascular death, non-fatal MI, non-fatal stroke and hospitalization for unstable angina; 4P-MACE), Number of Subjects ([1]; median follow-up 6.25 years): 401
- Primary CV composite (cardiovascular death, non-fatal MI, non-fatal stroke; 3P-MACE), Number of Subjects ([1]; median follow-up 6.25 years, added to standard of care): 362
- All-cause mortality, Subjects (%) [1, 8]: 12.3%
- HHF or CV death, Subjects (%) [1, 8]: 7.8%
- weight change (in words) ([1]; over time): initial numerical weight increase

Structure (SMILES): Cn1c(=O)cc(N2CCC[C@@H](N)C2)n(Cc2ccccc2C#N)c1=O [alogliptin]
- effect on major adverse CV event (MACE) outcomes (in words) (patients with T2D): neutral effect

Structure (SMILES): N#C[C@@H]1C[C@@H]2C[C@@H]2N1C(=O)[C@@H](N)C12CC3CC(CC(O)(C3)C1)C2 [saxagliptin]
- effect on major adverse CV event (MACE) outcomes (in words) (patients with T2D): neutral effect

Structure (SMILES): N[C@@H](CC(=O)N1CCn2c(nnc2C(F)(F)F)C1)Cc1cc(F)c(F)cc1F [sitagliptin]
- effect on major adverse CV event (MACE) outcomes (in words) (patients with T2D): neutral effect
